Converted amounts (≈) assume the structure as drawn. Each block holds one compound with its values, some of them ahead of it.
Assays:
Test in all cases: ≥ marks a high value that may be exact or a test limit, other limits are often not marked, values filed in µg/mL are converted to µM
[1] = tested on: Candida albicans ATCC 10231
[2] = tested on: Cryptococcus neoformans ATCC 32045
[3] = tested on: Escherichia coli ATCC 2592
[4] = tested on: Pseudomonas aeruginosa ATCC 10145
[5] = tested on: Staphylococcus aureus ATCC 33591
Acinetobacter baumannii = tested on: Acinetobacter baumannii
[6] = tested on: Escherichia coli ATCC 25922
Escherichia coli K88 = tested on: Escherichia coli K88
Escherichia coli K99 = tested on: Escherichia coli K99
Escherichia coli UB1005 = tested on: Escherichia coli UB1005
Escherichia coli = tested on: Escherichia coli
Klebsiella pneumoniae = tested on: Klebsiella pneumoniae
[7] = tested on: Pseudomonas aeruginosa ATCC 27853
[8] = tested on: Pseudomonas aeruginosa CICC 21625
[9] = tested on: Pseudomonas aeruginosa CICC 21630
[10] = tested on: Pseudomonas aeruginosa PAO1
Pseudomonas aeruginosa = tested on: Pseudomonas aeruginosa
[11] = tested on: Salmonella enterica subsp. enterica serovar Pullorum C79-13
[12] = tested on: Salmonella enterica subsp. enterica serovar Typhimurium ATCC 14028
[13] = tested on: Salmonella enterica subsp. enterica serovar Typhimurium C77-31
Candida albicans = tested on: Candida albicans
[14] = tested on: Candida parapsilosis CGMCC 2.3989
[15] = tested on: Candida tropicalis CGMCC 2.1975
[16] = tested on: Enterococcus faecalis ATCC 29212
[17] = tested on: Salmonella enterica subsp. enterica serovar Choleraesuis CVCC 503
[18] = tested on: Staphylococcus aureus ATCC 25923
[19] = tested on: Staphylococcus aureus ATCC 29213
[20] = tested on: Staphylococcus aureus ATCC 43300
[21] = tested on: Staphylococcus epidermidis ATCC 12228
[22] = tested on: Pseudomonas aeruginosa H187
Escherichia coli K-12 = tested on: Escherichia coli K-12
[23] = tested on: Staphylococcus aureus JE2
[24] = tested on: Aeromonas salmonicida CIP 103209T
[25] = tested on: Bacillus megaterium CIP 51.17
[26] = tested on: Enterococcus faecalis CIP 76.117
[27] = tested on: Escherichia coli CIP 54.8T
[28] = tested on: Listeria monocytogenes CIP 110871
[29] = tested on: Salmonella typhimurium CIP 103446
[30] = tested on: Staphylococcus aureus CIP 53.156

Compound: C[C@H](NC(=O)[C@H](Cc1ccccc1)NC(=O)[C@H](CCCCN)NC(=O)[C@H](CCCCN)NC(=O)[C@H](C)NC(=O)[C@H](Cc1ccccc1)NC(=O)[C@H](CCCCN)NC(=O)[C@H](CCCCN)NC(=O)[C@H](C)NC(=O)[C@H](Cc1ccccc1)NC(=O)[C@H](CCCCN)NC(=O)[C@H](CCCCN)NC(=O)[C@H](C)NC(=O)[C@H](Cc1ccccc1)NC(=O)[C@H](CCCCN)NC(=O)[C@H](CCCCN)NC(=O)[C@H](C)NC(=O)[C@H](Cc1ccccc1)NC(=O)[C@H](CCCCN)NC(=O)[C@H](CCCCN)NC(=O)[C@H](C)NC(=O)[C@@H](N)Cc1ccccc1)C(=O)N[C@@H](CCCCN)C(=O)N[C@@H](CCCCN)C(=O)O [FAKKFAKKFAKKFAKKFAKKFAKK]
MIC [1]: 61.7 µM (≈ 177 µg/mL)
MIC [2]: 7.9 µM (≈ 22.6 µg/mL)
MIC [3]: 8.14 µM (≈ 23.3 µg/mL)
MIC [4]: 21.6 µM (≈ 62 µg/mL)
MIC [5]: ≥ 87.2 µM

Compound: CC[C@H](C)[C@H](N)C(=O)N[C@@H](CCCCN)C(=O)N1CCC[C@H]1C(=O)N[C@H](C(=O)N[C@H](C(=O)N[C@@H](CCCCN)C(=O)N1CCC[C@H]1C(=O)N[C@H](C(=O)N[C@H](C(=O)N[C@@H](CCCCN)C(=O)N1CCC[C@H]1C(=O)N[C@H](C(=O)N[C@H](C(=O)N[C@@H](CCCCN)C(=O)N1CCC[C@H]1C(=O)N[C@H](C(N)=O)[C@@H](C)CC)[C@@H](C)CC)[C@@H](C)CC)[C@@H](C)CC)[C@@H](C)CC)[C@@H](C)CC)[C@@H](C)CC [IKPIIKPIIKPIIKPI]
MIC (Acinetobacter baumannii): ≥ 64 µM
MIC [6]: > 64 µM
MIC (Escherichia coli K88): ≥ 64 µM
MIC (Escherichia coli K99): ≥ 64 µM
MIC (Escherichia coli UB1005): ≥ 64 µM
MIC (Escherichia coli): > 64 µM
MIC (Klebsiella pneumoniae): > 64 µM
MIC [7]: > 64 µM
MIC [8]: ≥ 64 µM
MIC [9]: ≥ 64 µM
MIC [10]: > 64 µM
MIC (Pseudomonas aeruginosa): > 64 µM
MIC [11]: ≥ 64 µM
MIC [12]: > 64 µM
MIC [13]: ≥ 64 µM

Compound: CC[C@H](C)[C@H](NC(=O)[C@@H](NC(=O)[C@H](CO)NC(=O)[C@H](C)NC(=O)[C@@H](NC(=O)CNC(=O)[C@H](CCCCN)NC(=O)[C@H](CCCCN)NC(=O)[C@@H](NC(=O)[C@@H](NC(=O)[C@H](CC(=O)O)NC(=O)[C@H](Cc1ccccc1)NC(=O)[C@H](CC(C)C)NC(=O)CN)C(C)C)[C@@H](C)CC)C(C)C)C(C)C)C(=O)NCC(=O)NCC(=O)N[C@@H](CC(C)C)C(=O)O [GLFDVIKKGVASVIGGL]
MIC (Escherichia coli K-12): ≥ 38.3 µM
MIC [23]: ≥ 153 µM

Compound: CC[C@H](C)[C@H](NC(=O)[C@H](CC(C)C)NC(=O)[C@H](Cc1cnc[nH]1)NC(=O)[C@H](Cc1ccccc1)NC(=O)[C@H](CO)NC(=O)[C@@H](NC(=O)[C@H](CO)NC(=O)CN)[C@@H](C)O)C(=O)N[C@@H](Cc1ccc(O)cc1)C(=O)N[C@@H](CC(N)=O)C(=O)N[C@@H](CCCCN)C(=O)N[C@@H](Cc1c[nH]c2ccccc12)C(=O)N[C@@H](Cc1ccccc1)C(=O)N[C@@H](C)C(=O)N[C@H](C(=O)N[C@@H](CCCCN)C(=O)N[C@@H](CCCN=C(N)N)C(=O)N[C@@H](CCCN=C(N)N)C(=O)N[C@@H](CCCN=C(N)N)C(=O)N[C@@H](CCCCN)C(=O)N[C@@H](CCCN=C(N)N)C(=O)O)C(C)C [GSTSFHLIYNKWFAVKRRRKR]
MIC [24]: 5 µM (≈ 13.3 µg/mL)
MIC [25]: 3.16 µM (≈ 8.38 µg/mL)
MIC [26]: ≥ 86.6 µM
MIC [27]: 3.16 µM (≈ 8.38 µg/mL)
MIC [28]: ≥ 35.4 µM
MIC [29]: ≥ 50 µM
MIC [30]: 5.1 µM (≈ 13.5 µg/mL)

Compound: C[C@H](NC(=O)[C@H](CCCCN)NC(=O)[C@H](Cc1ccccc1)NC(=O)[C@H](C)NC(=O)[C@H](CCCCN)NC(=O)[C@H](Cc1ccccc1)NC(=O)[C@H](C)NC(=O)[C@H](CCCCN)NC(=O)[C@H](Cc1ccccc1)NC(=O)[C@H](C)NC(=O)[C@H](CCCCN)NC(=O)[C@H](Cc1ccccc1)NC(=O)[C@H](C)NC(=O)[C@H](CCCCN)NC(=O)[C@H](Cc1ccccc1)NC(=O)[C@H](C)NC(=O)[C@H](CCCCN)NC(=O)[C@H](Cc1ccccc1)NC(=O)[C@H](C)NC(=O)[C@H](CCCCN)NC(=O)[C@H](Cc1ccccc1)NC(=O)[C@H](C)NC(=O)[C@H](CCCCN)NC(=O)[C@@H](N)Cc1ccccc1)C(=O)O [FKAFKAFKAFKAFKAFKAFKAFKA]
MIC [1]: 127 µM (≈ 354 µg/mL)
MIC [2]: 8.11 µM (≈ 22.6 µg/mL)
MIC [3]: 8.11 µM (≈ 22.6 µg/mL)
MIC [4]: 8.96 µM (≈ 25 µg/mL)
MIC [5]: ≥ 179 µM

Further lines, with some results ahead:

MIC (Candida albicans): 5.66 µM (≈ 18.5 µg/mL)
MIC [14]: 4 µM (≈ 13.1 µg/mL)
MIC [15]: 2 µM (≈ 6.54 µg/mL)
MIC [16]: > 64 µM
MIC (Escherichia coli UB1005): 2 µM (≈ 6.54 µg/mL)
MIC [7]: > 64 µM
MIC [10]: > 64 µM
MIC [12]: > 64 µM
MIC [13]: ≥ 64 µM
MIC [18]: > 64 µM
MIC [19]: > 64 µM
MIC [20]: > 64 µM
MIC [21]: > 64 µM
Compound: CC(C)C[C@H](NC(=O)[C@H](CCCN=C(N)N)NC(=O)[C@H](C)NC(=O)[C@H](CS)NC(=O)[C@H](CC(C)C)NC(=O)[C@H](CCCCN)NC(=O)[C@H](CCCCN)NC(=O)[C@H](CC(C)C)NC(=O)[C@H](CCCN=C(N)N)NC(=O)[C@H](C)NC(=O)[C@H](CS)NC(=O)[C@H](CC(C)C)NC(=O)[C@H](CCCCN)NC(=O)[C@H](CCCCN)NC(=O)[C@H](CC(C)C)NC(=O)[C@H](CCCN=C(N)N)NC(=O)[C@H](C)NC(=O)[C@H](CS)NC(=O)[C@H](CC(C)C)NC(=O)[C@H](CCCCN)NC(=O)[C@H](CCCCN)NC(=O)[C@@H](N)CC(C)C)C(=O)N[C@@H](CCCCN)C(=O)N[C@@H](CCCCN)C(=O)N[C@@H](CC(C)C)C(=O)N[C@@H](CS)C(=O)N[C@@H](C)C(=O)N[C@@H](CCCN=C(N)N)C(N)=O [LKKLCARLKKLCARLKKLCARLKKLCAR]
MIC [17]: ≥ 64 µM

MIC (Escherichia coli UB1005): 0.674 µM (≈ 2 µg/mL)
MIC [22]: 2.7 µM (≈ 8 µg/mL)
Compound: CC[C@H](C)[C@H](NC(=O)[C@H](Cc1ccccc1)NC(=O)[C@H](CO)NC(=O)[C@H](CCCCN)NC(=O)[C@H](Cc1c[nH]c2ccccc12)NC(=O)[C@@H](N)CCCCN)C(=O)N[C@@H](CCCCN)C(=O)N[C@@H](CC(N)=O)C(=O)N[C@@H](CC(C)C)C(=O)N[C@@H](CCC(=O)O)C(=O)N[C@@H](CCCCN)C(=O)N[C@H](C(=O)N[C@@H](CC(C)C)C(=O)N[C@@H](CCCCN)C(=O)N[C@@H](CCCCN)C(=O)NCC(=O)N1CCC[C@H]1C(=O)N[C@H](C(=O)N[C@@H](CC(C)C)C(=O)N[C@@H](C)C(=O)N[C@@H](CC(N)=O)C(=O)N[C@@H](CC(C)C)C(=O)N[C@H](C(=O)N[C@@H](CO)C(=O)N[C@H](C(=O)N[C@H](C(=O)O)C(C)C)[C@@H](C)CC)C(C)C)[C@@H](C)CC)C(C)C [KWKSFIKNLEKVLKKGPILANLVSIV]

From DBAASP
